# Source: PMC4074212, “Tetra- and Pentacyclic Triterpene Acids from the Ancient Anti-inflammatory Remedy Frankincense as Inhibitors of Microsomal Prostaglandin E2 Synthase-1” (Journal of Natural Products, 2014)
# Entries after “also recorded” stand apart in the source; their conditions may differ.
# Experiments:
# mPGES-1 = biological target: T1, mPGES-1 (Homo sapiens, UniProt O14684); assay: cell-free mPGES-1 activity assay (microsomes of IL-1β-stimulated A549 cells, PGE2 formation from PGH2); assay type: biochemical; details: for inhibition of mPGES-1 activity (in words): tested at / up to 10 μM
# T1 construct: using microsomes of IL-1β-stimulated A549 cells as enzyme source; endogenous in cells; host or cells: A549 cells, IL-1β-induced, microsomal fraction
# T1 sequence (O14684 1-152): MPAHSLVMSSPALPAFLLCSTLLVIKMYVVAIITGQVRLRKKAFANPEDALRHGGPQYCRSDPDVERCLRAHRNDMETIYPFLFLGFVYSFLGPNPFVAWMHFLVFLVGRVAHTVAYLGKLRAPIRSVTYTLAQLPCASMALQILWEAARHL
# COX enzymes = tested on: COX enzymes; set-up: method as in PMID 17945191, PMID 20188172, PMID 24354175; details: cited from earlier work
# [1] = tested on: phorbol ester-induced ear inflammation; set-up: method as in PMID 16621377; details: applied topically, mice; cited from earlier work
smiles,measurement,setting,value
"CC(C)=CCC[C@H](C(=O)O)[C@@H]1CC[C@]2(C)C3=C(CC[C@@]12C)[C@@]1(C)CC[C@@H](O)C(C)(C)[C@@H]1CC3 [Compound 5, 3-α-hydroxy-8,24-dienetirucallic acid]",inhibition at 10 µM,mPGES-1; at 10 μM,96%
"CC(=O)O[C@@H]1CC[C@]2(C)C3=C(CC[C@H]2C1(C)C)[C@@]1(C)CC[C@@H]([C@H](CCC=C(C)C)C(=O)O)[C@]1(C)CC3 [Compound 6, 3α-acetoxy-8,24-dienetirucallic acid]",concentration range of COX enzyme inhibition,COX enzymes,two-digit micromolar range
"C=C(C)[C@@H]1CC[C@]2(C)[C@H](CC=C3[C@@H]4[C@@H](C)[C@H](C)CC[C@]4(C)CC[C@]32C)[C@@]1(C)CCC(=O)O [Compound 11, roburic acid]",inhibition of mPGES-1 activity (in words),mPGES-1,failed to significantly inhibit; also recorded: not active
same,concentration range of COX enzyme inhibition,COX enzymes,two-digit micromolar range
"CC(C)[C@@H]1CC[C@]2(C)[C@H](CC=C3[C@@H]4[C@@H](C)[C@H](C)CC[C@]4(C)CC[C@]32C)[C@@]1(C)CCC(=O)O [Compound 12, 4,(23)-dihydroroburic acid]",inhibition of mPGES-1 activity (in words),mPGES-1,failed to significantly inhibit; also recorded: not active
"CC(C)[C@@H]1CC[C@]2(C)[C@H](CC=C3[C@@H]4CC(C)(C)CC[C@]4(C)CC[C@]32C)[C@@]1(C)CCC(=O)O [Compound 14, 4,(23)-dihydronyctanthic acid]",inhibition of mPGES-1 activity (in words),mPGES-1,failed to significantly inhibit; also recorded: inactive
"C=C(C)[C@@H]1CC[C@]2(C)CC[C@]3(C)[C@H](CC[C@@H]4[C@@]5(C)CC[C@H](O)[C@](C)(C(=O)O)[C@@H]5CC[C@]43C)[C@@H]12 [Compound 15, Lupeolic acid]",inhibition of phorbol ester-induced ear inflammation,[1],inhibited
"C=C(C)[C@@H]1CC[C@]2(C)CC[C@]3(C)[C@H](CC[C@@H]4[C@@]5(C)CC[C@H](OC(C)=O)[C@](C)(C(=O)O)[C@@H]5CC[C@]43C)[C@@H]12 [Compound 16, 3-O-acetyllupeolic acid]",inhibition of phorbol ester-induced ear inflammation,[1],inhibited
